Data from patent US11459333B2, “Substituted pyrrolo[2,3-d]pyrimidines as JAK inhibitors” (Vimalan Biosciences, Inc., priority 2019, dated 2022).

Key:
Type in all cases: biochemical
JAK1 = JAK1 (Homo sapiens (Human), UniProt P23458); experiment: JAK/TYK2 Assay (Kinase Glo luminescence), JAK1; settings: 7.5 nM enzyme, 2 uM ATP, 30 uM IRS-1, 1 hr
Method: (§1) 10 mM test compound stock or 1 mM control compound stock (tofocitinib, ruxolitinib or staurosporine) in DMSO was diluted to 0.4 mM in DMSO. A 3-fold series dilution was then performed in DMSO to generate 10 different compound concentrations. The assay was carried out in 384-well white plate. 0.5 uL of 40× compound DMSO solution at different concentrations was mixed with 10 uL 2× enzyme prepared in reaction buffer (20 mM HEPES, 10 mM MgCl2, 0.01% Tween, 1 mM DTT, pH 7.5). 10 uL 2× substrate mixture prepared in reaction buffer was then added to start the reaction. A short spin was done to settle down all solutions to the bottom of the plate. Final concentrations of test compound in the reaction mixture were 10000, 3333, 1111, 370, 123, 41.2, 13.7, 4.57, 1.52 and 0.51 nM. Concentrations of control compound were ten times less. Enzymatic reaction was conducted at 25° C. for 1-2 hours. 10 uL of Kinase Glo Reagents was added to stop the reaction and generate the luminescent signal which was measured using Envision. Luminescence signal was inversely related to kinase activity. […] The mixture without any compound was the positive control.

JAK2 = JAK2 (Homo sapiens (Human), UniProt O60674); experiment: JAK/TYK2 Assay (Kinase Glo luminescence), JAK2; settings: 0.8 nM enzyme, 2 uM ATP, 4 uM pEY, 1 hr
Method: as §1

JAK3 = JAK3 (Homo sapiens (Human), UniProt P52333); experiment: JAK/TYK2 Assay (Kinase Glo luminescence), JAK3; settings: 1.5 nM enzyme, 2 uM ATP, 4 uM pEY, 1 hr
Method: as §1

TYK2 = TYK2 (Homo sapiens (Human), UniProt P29597); experiment: JAK/TYK2 Assay (Kinase Glo luminescence), TYK2; settings: 9 nM enzyme, 2 uM ATP, 30 uM IRS-1, 1 hr
Method: as §1

Chain of JAK2 (O60674 whole entry, species assumed): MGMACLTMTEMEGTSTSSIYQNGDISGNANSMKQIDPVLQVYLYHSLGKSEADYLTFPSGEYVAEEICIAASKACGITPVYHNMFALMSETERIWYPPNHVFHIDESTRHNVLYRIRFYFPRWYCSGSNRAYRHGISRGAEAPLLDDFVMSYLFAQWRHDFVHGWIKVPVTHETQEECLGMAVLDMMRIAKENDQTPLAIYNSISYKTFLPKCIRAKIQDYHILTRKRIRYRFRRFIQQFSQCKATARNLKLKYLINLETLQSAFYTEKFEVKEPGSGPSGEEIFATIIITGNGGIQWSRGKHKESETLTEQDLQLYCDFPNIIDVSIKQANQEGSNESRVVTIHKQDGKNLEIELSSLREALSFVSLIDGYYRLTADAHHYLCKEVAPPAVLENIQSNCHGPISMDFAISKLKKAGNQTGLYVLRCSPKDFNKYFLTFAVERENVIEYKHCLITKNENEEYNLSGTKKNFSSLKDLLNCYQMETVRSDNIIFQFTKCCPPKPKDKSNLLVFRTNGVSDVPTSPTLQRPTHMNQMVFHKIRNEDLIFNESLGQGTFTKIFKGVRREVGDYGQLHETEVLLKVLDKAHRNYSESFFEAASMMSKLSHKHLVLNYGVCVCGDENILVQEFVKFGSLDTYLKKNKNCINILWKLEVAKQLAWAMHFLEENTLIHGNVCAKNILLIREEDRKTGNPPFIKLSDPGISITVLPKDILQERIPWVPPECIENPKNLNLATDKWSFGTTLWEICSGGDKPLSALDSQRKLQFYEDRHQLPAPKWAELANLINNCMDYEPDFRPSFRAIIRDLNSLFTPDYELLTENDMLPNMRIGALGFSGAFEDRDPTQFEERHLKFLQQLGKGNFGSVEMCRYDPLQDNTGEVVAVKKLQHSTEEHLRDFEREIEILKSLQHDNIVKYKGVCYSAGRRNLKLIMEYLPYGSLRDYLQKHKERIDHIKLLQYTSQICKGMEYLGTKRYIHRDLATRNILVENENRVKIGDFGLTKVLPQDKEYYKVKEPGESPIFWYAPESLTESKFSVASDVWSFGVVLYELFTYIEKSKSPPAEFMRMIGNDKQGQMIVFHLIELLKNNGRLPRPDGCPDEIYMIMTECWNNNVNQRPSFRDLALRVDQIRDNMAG
Chain of TYK2 (P29597 whole entry, species assumed): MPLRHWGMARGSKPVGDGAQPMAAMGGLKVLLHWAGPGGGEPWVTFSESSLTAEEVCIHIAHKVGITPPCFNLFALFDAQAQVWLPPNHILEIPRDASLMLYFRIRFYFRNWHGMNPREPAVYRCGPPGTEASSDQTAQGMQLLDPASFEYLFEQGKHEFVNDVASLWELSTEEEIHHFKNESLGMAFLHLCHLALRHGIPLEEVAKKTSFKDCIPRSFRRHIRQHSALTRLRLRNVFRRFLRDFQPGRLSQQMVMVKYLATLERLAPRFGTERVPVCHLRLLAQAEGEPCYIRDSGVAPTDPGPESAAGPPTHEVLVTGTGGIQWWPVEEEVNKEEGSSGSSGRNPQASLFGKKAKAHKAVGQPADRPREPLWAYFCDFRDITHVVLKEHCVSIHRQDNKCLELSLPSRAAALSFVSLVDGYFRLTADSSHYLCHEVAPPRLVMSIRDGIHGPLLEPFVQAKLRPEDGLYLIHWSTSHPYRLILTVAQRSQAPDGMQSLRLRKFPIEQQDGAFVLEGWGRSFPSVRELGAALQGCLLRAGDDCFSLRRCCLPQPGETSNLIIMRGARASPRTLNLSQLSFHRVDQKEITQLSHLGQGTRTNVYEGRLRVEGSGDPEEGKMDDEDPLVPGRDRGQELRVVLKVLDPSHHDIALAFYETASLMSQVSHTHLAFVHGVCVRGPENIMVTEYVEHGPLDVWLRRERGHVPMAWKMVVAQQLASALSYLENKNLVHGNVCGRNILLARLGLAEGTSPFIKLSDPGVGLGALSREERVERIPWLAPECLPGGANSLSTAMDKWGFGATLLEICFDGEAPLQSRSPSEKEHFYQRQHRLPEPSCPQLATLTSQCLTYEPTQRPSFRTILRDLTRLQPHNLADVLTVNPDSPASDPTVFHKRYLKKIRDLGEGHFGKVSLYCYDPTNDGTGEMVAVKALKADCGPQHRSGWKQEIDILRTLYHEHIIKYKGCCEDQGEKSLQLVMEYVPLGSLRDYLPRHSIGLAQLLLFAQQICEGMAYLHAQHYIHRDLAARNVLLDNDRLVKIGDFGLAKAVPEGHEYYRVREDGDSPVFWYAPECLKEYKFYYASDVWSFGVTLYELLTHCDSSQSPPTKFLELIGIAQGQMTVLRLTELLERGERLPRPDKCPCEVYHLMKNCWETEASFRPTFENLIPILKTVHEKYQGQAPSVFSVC
Chain of JAK1 (P23458 whole entry, species assumed): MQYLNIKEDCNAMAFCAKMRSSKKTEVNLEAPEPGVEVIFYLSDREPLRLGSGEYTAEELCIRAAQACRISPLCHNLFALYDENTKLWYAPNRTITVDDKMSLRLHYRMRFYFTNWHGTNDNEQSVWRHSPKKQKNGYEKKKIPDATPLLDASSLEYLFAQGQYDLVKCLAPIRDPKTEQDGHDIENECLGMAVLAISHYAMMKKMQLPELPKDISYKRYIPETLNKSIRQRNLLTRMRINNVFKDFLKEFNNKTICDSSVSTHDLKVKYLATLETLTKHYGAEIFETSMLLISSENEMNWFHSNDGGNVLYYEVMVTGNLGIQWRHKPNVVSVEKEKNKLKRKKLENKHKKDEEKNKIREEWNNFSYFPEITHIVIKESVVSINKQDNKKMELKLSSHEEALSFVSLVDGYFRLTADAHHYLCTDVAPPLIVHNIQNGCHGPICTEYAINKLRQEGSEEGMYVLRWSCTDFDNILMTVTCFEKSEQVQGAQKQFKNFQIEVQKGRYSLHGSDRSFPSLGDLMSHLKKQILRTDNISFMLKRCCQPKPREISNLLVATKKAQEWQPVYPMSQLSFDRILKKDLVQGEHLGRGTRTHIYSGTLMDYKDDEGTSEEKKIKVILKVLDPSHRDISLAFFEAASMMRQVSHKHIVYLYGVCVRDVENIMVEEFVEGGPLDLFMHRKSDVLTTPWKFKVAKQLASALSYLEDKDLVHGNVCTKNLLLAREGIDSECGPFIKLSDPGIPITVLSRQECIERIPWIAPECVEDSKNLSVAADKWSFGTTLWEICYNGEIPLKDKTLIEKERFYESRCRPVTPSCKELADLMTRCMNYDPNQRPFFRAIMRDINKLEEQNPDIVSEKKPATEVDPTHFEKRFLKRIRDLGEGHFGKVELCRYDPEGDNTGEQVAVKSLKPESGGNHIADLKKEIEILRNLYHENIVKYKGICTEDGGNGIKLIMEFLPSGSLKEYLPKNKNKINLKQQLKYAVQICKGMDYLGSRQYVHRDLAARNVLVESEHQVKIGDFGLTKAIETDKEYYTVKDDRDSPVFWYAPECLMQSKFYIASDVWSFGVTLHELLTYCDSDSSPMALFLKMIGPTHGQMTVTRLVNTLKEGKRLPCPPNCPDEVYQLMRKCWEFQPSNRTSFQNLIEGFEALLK
Chain of JAK3 (P52333 whole entry, species assumed): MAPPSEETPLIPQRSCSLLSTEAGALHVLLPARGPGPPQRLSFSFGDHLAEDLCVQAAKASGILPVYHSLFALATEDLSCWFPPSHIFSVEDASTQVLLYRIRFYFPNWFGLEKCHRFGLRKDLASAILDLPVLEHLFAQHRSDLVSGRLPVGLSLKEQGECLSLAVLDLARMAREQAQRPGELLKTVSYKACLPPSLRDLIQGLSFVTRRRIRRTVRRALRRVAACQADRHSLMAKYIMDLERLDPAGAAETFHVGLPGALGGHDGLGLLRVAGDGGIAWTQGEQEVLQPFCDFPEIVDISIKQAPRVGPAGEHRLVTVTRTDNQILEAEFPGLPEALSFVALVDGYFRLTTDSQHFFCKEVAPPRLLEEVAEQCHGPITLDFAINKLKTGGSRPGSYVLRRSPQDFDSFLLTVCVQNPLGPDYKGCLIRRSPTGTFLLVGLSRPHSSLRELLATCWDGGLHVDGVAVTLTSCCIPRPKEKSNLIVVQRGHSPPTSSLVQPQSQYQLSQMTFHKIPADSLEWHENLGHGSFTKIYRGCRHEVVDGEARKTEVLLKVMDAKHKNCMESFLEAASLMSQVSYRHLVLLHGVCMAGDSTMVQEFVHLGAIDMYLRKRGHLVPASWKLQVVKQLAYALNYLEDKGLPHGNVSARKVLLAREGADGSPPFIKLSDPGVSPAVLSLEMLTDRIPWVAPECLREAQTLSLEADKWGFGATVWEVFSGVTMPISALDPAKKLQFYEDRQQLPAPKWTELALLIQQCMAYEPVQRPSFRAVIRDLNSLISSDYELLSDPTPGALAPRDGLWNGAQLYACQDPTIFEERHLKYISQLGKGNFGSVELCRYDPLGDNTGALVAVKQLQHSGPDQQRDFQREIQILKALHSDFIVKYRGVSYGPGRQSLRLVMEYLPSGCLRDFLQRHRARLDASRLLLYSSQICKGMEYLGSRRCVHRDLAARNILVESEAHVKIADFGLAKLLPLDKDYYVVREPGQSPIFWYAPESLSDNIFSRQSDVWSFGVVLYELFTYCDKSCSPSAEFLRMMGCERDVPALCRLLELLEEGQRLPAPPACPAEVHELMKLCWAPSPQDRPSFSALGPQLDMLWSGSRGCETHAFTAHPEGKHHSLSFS

SMILES	IC50 (JAK1) [µM]	IC50 (JAK2) [µM]	IC50 (JAK3) [µM]	IC50 (TYK2) [µM]
CC[C@H](Cn1ccc2cnc(Nc3cnn(CC(=O)O[C@@H]4C[C@@H](C(=O)OC)N(C)C4)c3)nc21)C(C)C [Compound 131, methyl (2S,4R)-4-(2-(4-((7-((S)-2-ethyl-3-methylbutyl)-7H-pyrrolo[2,3-d]pyrimidin-2-yl)amino)-1H-pyrazol-1-yl)acetoxy)-1-methylpyrrolidine-2-carboxylate]	< 0.1	< 0.1	< 0.1	< 0.1
CCOC(=O)[C@@H]1C[C@@H](OC(=O)Cn2cc(Nc3ncc4ccn(C[C@@H](CC)C(C)C)c4n3)cn2)CN1C [Compound 133, ethyl (2S,4R)-4-(2-(4-((7-((S)-2-ethyl-3-methylbutyl)-7H-pyrrolo[2,3-d]pyrimidin-2-yl)amino)-1H-pyrazol-1-yl)acetoxy)-1-methylpyrrolidine-2-carboxylate]	< 0.1	< 0.1	< 0.1	< 0.1
CC[C@H](Cn1ccc2cnc(Nc3cnn(CC(=O)O[C@@H]4C[C@@H](C(=O)OC(C)C)N(C)C4)c3)nc21)C(C)C [Compound 134, isopropyl (2S,4R)-4-(2-(4-((7-((S)-2-ethyl-3-methylbutyl)-7H-pyrrolo[2,3-d]pyrimidin-2-yl)amino)-1H-pyrazol-1-yl)acetoxy)-1-methylpyrrolidine-2-carboxylate]	< 0.1	0.1 to 1	0.1 to 1	0.1 to 1
CC[C@H](Cn1ccc2cnc(Nc3cnn(CC(=O)O[C@@H]4C[C@@H](C(=O)O)N(C)C4)c3)nc21)C(C)C [Compound 135, (2S,4R)-4-(2-(4-((7-((S)-2-ethyl-3-methylbutyl)-7H-pyrrolo[2,3-d]pyrimidin-2-yl)amino)-1H-pyrazol-1-yl)acetoxy)-1-methylpyrrolidine-2-carboxylic acid]	0.1 to 1	0.1 to 1		0.1 to 1
